# Test results from patent US9944721B2, “Polysialic acid and use for treatment of neurodegenerative and neuroinflammatory diseases” (RHEINISCHE FRIEDRICH-WILHELMS UNIVERSITÄT BONN, priority 2013, dated 2018).
# Assays:
# Type in all cases: cell-based
# [1] = tested on: co-culture of human microglial line and iPS cell derived neurons; assay: Microglial neurotoxicity in human microglia-neuron co-culture, 24 hours (neurite length); conditions: 1.5 μM, 24 hours co-culture; FIG. 4D
# Experimental: Next, the human microglial line was co-cultured for 24 hours with neurons derived from induced pluripotent stem cells and the effect of low molecular weight polysialic acid (PSA-20; 1.5 μM) on microglial neurotoxicity was evaluated. The human neurons were generated from human induced pluripotent stem cells (iPS cells). In vitro differentiation into neurons was carried out using a short modified protocol, which was used to induce primitive neural precursors. In detail, iPS cells were cultured on feeder cells to form small colonies. Next medium was changed to neural induction medium in the presence of LIF and three small molecules CHIR99021 (inhibitor of GSK-3β) and SB431542 (inhibitor of TGF-β and activin receptors), and compound E (inhibitor of γ-secretase) for 10 days. To expand the neural precursors, cells were dissociated to single cells by accutase and plated on poly-L-ornithine/fibronectin coated cell culture dishes with induction medium in the presence of leukaemia inhibitory factor (LIF), CHIR99021 and SB431542. […] Ten random photographs were taken for each condition by confocal laser scanning microscopy (Fluoview 1000, Olympus) and length of neuronal branches was measured by Neuron J software (NIH).
# [2] = tested on: human microglial cells stimulated with fibrillary amyloid-β1-42; assay: Amyloid-β1-42 induced superoxide release of human microglia (DHE); conditions: Aβ 10 μM
# Experimental: The human microglial cell line was treated with human Alzheimer's disease associated fibrillary amyloid-beta peptide (Aβ) to mimic inflammatory signalling of Alzheimer's disease brain tissue. To obtain fibrillary components of Aβ, the synthetic amyloid-beta peptide (amyloid-beta 1-42, Bachem/Brucker, 10 μM) was preincubated at 37° C. for at least three days. The human microglial cells were treated with the different concentrations of 0.15 μM, 0.5 μM, or 1.5 μM of low molecular weight polysialic acid (PSA-20) for 60 minutes followed by incubation for 15 minutes with fibrillary Aβ. Then, 30 μM dihydroethidium (DHE) was added and incubated at 37° C. for 15 minutes for measurement of superoxide anion radical production. Cells were fixed with 4% paraformaldehyde plus 0.25% glutaraldehyde and analyzed by confocal microscopy. For the quantification of DHE staining intensity six pictures of each experiment were obtained and analyzed by ImageJ software (NIH). The background was subtracted and the mean values of the staining intensities were compared. Cells were fixed and the intensity of DHE was quantified by confocal microscopy.
# To confirm the specificity of the DHE measurement, the determination of the effect of PSA-20 on superoxide production in human microglial cells was repeated. As a control the radical scavenger Trolox, a water-soluble vitamin E analogue, was added to the system. Furthermore, as additional control superoxide dismutase-1 (SOD1) was added into the medium. Superoxide should no longer be detectable by the DHE dye after successful transformation of superoxide by SOD1.
# Human microglial cells were cultured alone and production of reactive oxygen species was analyzed after treatment with the Alzheimer's disease plaques associated fibrillary amyloid-β1-42. To measure the relative production of superoxide by the microglial cells, cells were plated in 4-chamber culture dishes. After 24 hours human microglial cells were treated with 1.5 μM of low molecular weight polysialic acid (PSA-20) for 60 minutes followed by incubation for 15 minutes with 10 μM fibrillary amyloid-β1-42. Control dishes were treated with either 1.5 μM PSA-20 and 40 μM Trolox or 1.5 μM PSA-20 and 20 μg/ml superoxide dismutase-1 (SOD1, Serva). Then, cells were washed 2-times with Krebs-HEPES-buffer and afterwards incubated for 15 minutes with 30 μM DHE solution (diluted in Krebs-HEPES-buffer). Finally cells were washed 2-times with Krebs-HEPES-buffer and fixed for 15 minutes with 0.25% glutaraldehyde and 4% PFA. In total, six images were randomly collected per experimental group by confocal laser scanning microscopy (Fluoview 1000, Olympus). All cells of the collected images were analyzed by Image J software (NIH).
# [3] = tested on: LPS-activated human microglia; assay: LPS-induced TNF-alpha gene transcription in human microglia (qRT-PCR); conditions: LPS 1 μg/ml, 24 hours
# Experimental: To analyse whether polysialic acid might interfere with a pro-inflammatory phenotype of human microglia, cultured human microglia were activated with lipopolysaccharides (LPS) and the effect of the distinct sialic acid forms including fractions of oligosialic and polysialic acid on the gene transcription of the pro-inflammatory cytokine tumor necrosis factor-alpha induced by the bacterial toxin LPS was determined. A human microglial line derived from induced pluripotent stem cells as described in WO 2010/125110 was used to study the effect of sialic acid forms with different chain length. Human microglial cells were cultured on 5 μg/ml poly-L-lysin (PLL, Sigma)-coated dishes in N2-medium containing DMEM/F12 culture medium (Gibco) supplemented with 1% N2 (Invitrogen), 0.48 mM L-glutamine (Gibco) and optionally 100 μg/ml penicillin/streptomycin (Gibco). Cells were cultured with high density and splitted 1:2 when required. The human induced pluripotent stem cell derived microglia line was treated with lipopolysaccharides (LPS, 1 μg/ml, Invivogen) and sialic acid forms with different chain length for 24 hours. Gene transcripts for tumor necrosis factor-α (TNF-alpha) were determined by quantitative RT-PCR and normalized to GAPDH. In detail, RNA isolation was performed using RNeasy Mini Kit (Qiagen) and transcription with the SuperScript First-Strand Synthesis System (Invitrogen). Quantitative RT-PCR with specific oligonucleotides (GAPDH: […] (SEQ ID NO: 1) and […] (SEQ ID NO: 2); TNFα: […] (SEQ ID NO: 3) and […] (SEQ ID NO: 4)) was performed using SYBR green PCR Master Mix with the Mastercycler epgradients S (Eppendorf). Results were normalized to GAPDH. Quantification using the delta-CT method was carried out.
substance,measurement,setting,value
poly-(α(2→8)Neu5Ac)n [PSA-20],neurotoxic effect of human microglia on human neurons (relative neurite length),[1],completely prevented the neurotoxic effect
same,Aβ induced superoxide release,"[2]; 1.5 μM, 60 minutes pre-treatment, FIG. 4A",reduced
same,amyloid-β1-42 induced stimulation of the superoxide production,"[2]; repeat, FIG. 4B, PSA-20 1.5 μM, Trolox 40 μM, SOD1 20 μg/ml",prevented
same,LPS-induced gene transcription of TNF-alpha,"[3]; 0.15 μM, 0.5 μM and 1.5 μM, FIG. 3",reduced
same,Anti-inflammatory effect on TNF-alpha of LPS-activated human microglia,[3]; summary of Example 4,Yes
